Assay results: patent US20030097692A1, “Plants with imidazolinone-resistant ALS” (priority 2000, published 2003)

Tested on: Arabidopsis seedlings
Assay: Dose-response of imazethapyr spray on 7-day-old Arabidopsis seedlings (foliar damage)
Assay type: in vivo, Arabidopsis thaliana
Details: repeated dose-response experiments, spray application, scored for foliar damage at 16 days post-treatment
Procedure: EMS-mutagenized M2 generation Arabidopsis thaliana (cv. Col-0) seeds were obtained from Lehle Seeds, Round Rock, Texas under catalog number M2E02-02. Flats were seeded to provide approximately one million ems-mutagenized seeds. The seeded flats were then watered by sub-irrigation, covered with transparent plastic domes, and maintained at 4° C. and 70% relative humidity for 4 days in the dark. At the end of this period the growth chamber conditions were reset to 21° C., 70% relative humidity under a 16 hour photoperiod, with soil-surface light intensity adjusted to approximately 150 uEinsteins/m^2/s. The flats were maintained under these conditions for seven days prior to imazethapyr, an imidazolinone treatments. The plastic domes were removed 2 days before the treatments to acclimate the plants to ambient humidity.
Based on repeated dose-response experiments using 7-day-old Arabidopsis seedlings grown under the conditions described above, it was determined that the I100 for imazethapyr was approximately 0.035 lbs. active ingredient per acre (a.i./acre). EMS-mutagenized seedlings were screened at a rate equivalent to approximately twice the 1100 value, or 0.07 lbs. a.i./acre. […] Seedlings were then returned to the growth chamber, and scored for foliar damage at 16 days post-treatment.

SMILES: CCc1cnc(C2=NC(C)(C(C)C)C(=O)N2)c(C(=O)O)c1 (stereo not shown) [imazethapyr, 2-[4,5-dihydro-4-methyl-4-(1-methylethyl)-5-oxo-1H-imidazol-2-yl]-5-ethyl-3-pyridinecarboxylic acid]
- I100: approximately 0.035 lbs. active ingredient per acre
